Laboratory results: ChEMBL document CHEMBL1138625, “Synthesis and evaluation of novel phenoxypropanolamine derivatives containing acetanilides as potent and selective beta3-adrenergic receptor agonists” (Bioorg Med Chem, 2009)

How the values were obtained:
[1] = molecular target: Beta-2 adrenergic receptor (Homo sapiens, UniProt P07550)
Description: Agonist activity at human beta2 adrenergic receptor expressed in CHO cells assessed as cAMP accumulation

[2] = Oral bioavailability in rat; type: ADME, organism-based; conditions: in vivo
[3] = molecular target: Beta-1 adrenergic receptor (Homo sapiens) (UniProt P08588); conditions: CHO
[4] = molecular target: Beta-3 adrenergic receptor (Homo sapiens) (UniProt P13945)
Chain of Beta-3 adrenergic receptor (Homo sapiens) (P13945 whole entry, looked up): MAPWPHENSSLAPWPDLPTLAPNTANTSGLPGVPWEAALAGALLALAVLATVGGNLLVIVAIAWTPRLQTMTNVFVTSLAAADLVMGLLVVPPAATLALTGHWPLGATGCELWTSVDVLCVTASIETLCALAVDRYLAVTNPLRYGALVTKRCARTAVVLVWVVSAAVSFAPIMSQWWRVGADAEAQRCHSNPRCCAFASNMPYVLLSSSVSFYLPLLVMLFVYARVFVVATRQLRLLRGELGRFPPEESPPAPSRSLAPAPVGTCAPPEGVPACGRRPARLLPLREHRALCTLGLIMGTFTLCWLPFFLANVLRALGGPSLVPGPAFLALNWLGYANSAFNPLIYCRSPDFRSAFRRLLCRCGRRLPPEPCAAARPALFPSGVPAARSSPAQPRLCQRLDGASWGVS

[5] = molecular target: Beta-1 adrenergic receptor (Homo sapiens) (UniProt P08588); assay: Agonist activity at human adrenergic receptor expressed in CHO cells assessed as cAMP accumulation
Mus musculus = assay: Hypoglycemic activity in diabetic kk mouse assessed as reduction in plasma glucose level at 30 mg/kg, po administered once daily for 4 days by colorimetry; type: functional; design: scale not given: the % may be the effect or the level left

Chain of Beta-2 adrenergic receptor (P07550 whole entry): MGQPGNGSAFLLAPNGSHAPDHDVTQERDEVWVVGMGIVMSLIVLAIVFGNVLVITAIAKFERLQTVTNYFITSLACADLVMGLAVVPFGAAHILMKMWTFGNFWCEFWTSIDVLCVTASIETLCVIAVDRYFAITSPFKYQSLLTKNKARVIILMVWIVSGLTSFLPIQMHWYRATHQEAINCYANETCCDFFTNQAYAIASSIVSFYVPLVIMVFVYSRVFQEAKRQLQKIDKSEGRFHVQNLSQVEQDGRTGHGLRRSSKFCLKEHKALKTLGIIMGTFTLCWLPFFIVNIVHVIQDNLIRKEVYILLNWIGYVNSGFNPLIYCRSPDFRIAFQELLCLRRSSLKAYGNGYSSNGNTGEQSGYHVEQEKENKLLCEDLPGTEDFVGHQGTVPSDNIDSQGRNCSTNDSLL

Compound	EC50 [1]	bioavailability [2]	Intrinsic activity [3]	EC50 [4]	EC50 [5]	Activity (Mus musculus)
O=C(Cc1ccccn1)Nc1ccc(CCNC[C@H](O)COc2cccc3[nH]c(=O)[nH]c23)cc1	> 100 µM	–	–	–	–	–
O=C(Cc1nccn1-c1ccccc1)Nc1ccc(CCNC[C@H](O)COc2ccccc2)cc1	> 100 µM	–	–	–	–	–
O=C(Cc1nccn1Cc1ccc2ccccc2c1)Nc1ccc(CCNC[C@H](O)COc2ccccc2)cc1	> 100 µM	–	–	–	–	–
O=C(Cc1ccccn1)Nc1ccc(CCNC[C@H](O)COc2ccccc2)cc1	> 100 µM	27%	0.11	120 µM	> 100 µM	–
O=C(Cc1cccc(OCc2ccccc2)n1)Nc1ccc(CCNC[C@H](O)COc2ccccc2)cc1	> 100 µM	–	0.12	2.5 µM	0.2 µM	–
O=C(Cc1nc2ccccc2n1Cc1ccccc1)Nc1ccc(CCNC[C@H](O)COc2ccccc2)cc1	> 100 µM	–	–	–	–	–
CS(=O)(=O)Nc1ccc(OC[C@@H](O)CNCCc2ccc(NC(=O)Cc3ccccn3)cc2)cc1	> 100 µM	–	0.01	> 100 µM	> 100 µM	–
O=C(Cc1nccn1Cc1ccccc1)N1CCCc2cc(CCNC[C@H](O)COc3ccccc3)ccc21	> 100 µM	–	–	–	–	–
Cc1cc(C)nc(CC(=O)Nc2ccc(CCNC[C@H](O)COc3ccccc3)cc2)c1	> 100 µM	–	0.17	0.28 µM	0.31 µM	–
O=C(Cc1cn(Cc2ccccc2)cn1)Nc1ccc(CCNC[C@H](O)COc2ccccc2)cc1	> 100 µM	–	–	–	–	–
O=C(Cc1nccn1Cc1ccc(Cl)cc1)Nc1ccc(CCNC[C@H](O)COc2ccccc2)cc1	> 100 µM	–	0.13	0.27 µM	0.074 µM	–
O=C(Cc1ccccn1)Nc1ccc(CCNC[C@H](O)COc2cccc3[nH]c4ccccc4c23)cc1	> 100 µM	–	–	–	–	–
CCCN(C(=O)Cc1nccn1Cc1ccccc1)c1ccc(CCNC[C@H](O)COc2ccccc2)cc1	> 100 µM	–	0.01	0.5 µM	> 100 µM	–
Cc1cccnc1CC(=O)Nc1ccc(CCNC[C@H](O)COc2ccccc2)cc1	> 100 µM	–	0.18	0.33 µM	0.39 µM	–
CC(Cc1ccc(NC(=O)Cc2nccn2Cc2ccccc2)cc1)NC[C@H](O)COc1ccccc1 (single isomer, unassigned; diastereomer I)	0.027 µM	–	–	–	–	–
CN(C(=O)Cc1nccn1Cc1ccccc1)c1ccc(CCNC[C@H](O)COc2ccccc2)cc1	> 100 µM	–	0.04	0.28 µM	> 100 µM	38%
O=C(Cc1ncc[nH]1)Nc1ccc(CCNC[C@H](O)COc2ccccc2)cc1	> 100 µM	–	0.26	9.6 µM	0.51 µM	–
CC(Cc1ccc(NC(=O)Cc2nccn2Cc2ccccc2)cc1)NC[C@H](O)COc1ccccc1 (stereo in doubt; 27b)	> 100 µM	–	–	–	–	–
O=C(Cc1ccccn1)Nc1ccc(CCNC[C@H](O)COc2cccc3[nH]ccc23)cc1	> 100 µM	–	0	1.3 µM	> 100 µM	–
O=C(Cc1ccccn1)Nc1ccc(CCNC[C@H](O)COc2cccnc2)cc1	> 100 µM	–	–	–	–	–
O=C(Cc1cccc(Cl)n1)Nc1ccc(CCNC[C@H](O)COc2ccccc2)cc1	> 100 µM	–	–	–	–	–
O=C(Cc1nccn1Cc1ccccc1)Nc1ccc(CCNC[C@H](O)COc2ccccc2)cc1	> 100 µM	–	0.2	0.18 µM	0.13 µM	43%
O=C(Cc1ccccn1)Nc1ccc(CCNC[C@H](O)COc2ccc(O)cc2)cc1	> 100 µM	2%	0.14	0.29 µM	2.7 µM	–
O=C(Cc1nccn1Cc1ccc(Br)cc1)Nc1ccc(CCNC[C@H](O)COc2ccccc2)cc1	> 100 µM	–	0.3	0.19 µM	0.071 µM	–
